From patent US20250082633A1, “COMPOUNDS AND METHODS FOR MODULATING SPLICING” (REMIX THERAPEUTICS INC., priority 2021, published 2025) come the findings set out here.

Common to all, as to assay type: cell-based
One assay relates to HTT mRNA. As to the kind of experiment: RT-qPCR splicing assay, HTT canonical (CJ) and alternative (AJ) junction mRNA. The settings on record: Homo sapiens; for IC50: read-out: HTT CJ IC50; for AC50: increase in alternative junction mRNA, read-out: HTT AJ AC50. In outline: (§1)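 Splice-junction mRNAs (CJ, AJ) measured by TaqMan one-step RT-qPCR on cell lysates, using PPIA as reference for adherent A673 and GAPDH or GUSB for K562. Cells exposed for 24 h to 11 threefold concentrations up to 10 uM final, with DMSO at or below 0.25%.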

The subject of a further assay is MYB mRNA. As to the kind of experiment: RT-qPCR splicing assay, MYB canonical (CJ) and alternative (AJ) junction mRNA. To be noted: Homo sapiens; for IC50: read-out: MYB CJ IC50; for AC50: increase in alternative junction mRNA, read-out: MYB AJ AC50. In short, it runs like this:
as §1

Another assay deals with SMN2 mRNA. Nature of the assay: RT-qPCR splicing assay, gene panel, SMN2 canonical junction (CJ) mRNA. To be noted: Homo sapiens; decrease in CJ mRNA levels; larger panel of genes; Table 3; read-out: SMN2 CJ IC50. In outline:
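A673 (DMEM/10% FBS) or K562 (IMDM/10% FBS) cells were treated 24 h at 37 °C with an 11-point 3-fold dilution series, top final 10 uM, DMSO ≤0.25%. Lysates underwent one-step RT-qPCR for the canonical-junction isoform with GAPDH, GUSB or PPIA as housekeeper. ΔΔCt versus DMSO was converted to RQ (2^−ΔΔCt), then to percent response.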

Where [1] appears, read: decrease in CJ mRNA levels, larger panel of genes, Table 3.
[2] abbreviates: decrease in canonical junction mRNA, A673 or K562 cells, 24 hours treatment, Table 2.
[3] abbreviates: A673 or K562 cells, 24 hours treatment, Table 2.

Each structure is given as a SMILES string. Counter-ions that a name gives are not always drawn. Like-named read-outs stand apart in the source and are kept apart here. A value given as a limit tells only on which side of the number the result lay.

On to `Cc1cn2nc(-n3cc4cc(C5CCNCC5)cc(F)c4n3)cc(C)c2n1` [Compound 120, 6-[7-fluoro-5-(4-piperidyl)indazol-2-yl]-2,8-dimethyl-imidazo[1,2-b]pyridazine], for which the concentration for half-maximal inhibition (IC50) was 1000 to 10000 nM with HTT mRNA (setting [1]); 1000 to 10000 nM with HTT mRNA (setting [2]); above 10000 nM in the assay on MYB mRNA (setting [1]); above 10000 nM in the assay on MYB mRNA (setting [2]); 100 to 1000 nM in the assay with SMN2 mRNA. The half-maximal activity concentration (AC50) with HTT mRNA (setting [3]) is above 10000 nM; in the assay with MYB mRNA (setting [3]) it was 1000 to 10000 nM.

Regarding `Fc1cc(-c2ccc3cnccc3c2)cc2cn(C3CCNCC3)nc12` [Compound 161, 6-[7-fluoro-2-(4-piperidyl)indazol-5-yl]isoquinoline], the concentration for half-maximal inhibition (IC50) in the assay with HTT mRNA (setting [1]) was 100 to 1000 nM; in the assay with HTT mRNA (setting [2]) it was 100 to 1000 nM; with MYB mRNA (setting [1]), 1000 to 10000 nM; in the assay on MYB mRNA (setting [2]) it was 1000 to 10000 nM; in the assay with SMN2 mRNA it was 100 to 1000 nM. Also, the half-maximal activity concentration (AC50) in the assay with HTT mRNA (setting [3]) and in the assay on MYB mRNA (setting [3]) was 1000 to 10000 nM in each case.

Take `Cc1cn2nc(-c3cc4cn(C5CCNCC5)nc4cc3O)cc(C)c2n1` [Compound 154, 5-(2,8-dimethylimidazo[1,2-b]pyridazin-6-yl)-2-(piperidin-4-yl)-2H-indazol-6-ol]: the 50% inhibitory concentration (IC50) is below 100 nM in the assay with HTT mRNA (setting [1]); below 100 nM with HTT mRNA (setting [2]); 100 to 1000 nM in the assay with MYB mRNA (setting [1]); 100 to 1000 nM in the assay with MYB mRNA (setting [2]); below 100 nM in the assay with SMN2 mRNA. The AC50 in the assay on HTT mRNA (setting [3]) and with MYB mRNA (setting [3]) was 100 to 1000 nM each time.

Take `Cc1cn2cc(-c3cc(F)c4nn(C5CCNCC5)cc4c3)cc(C)c2n1` [Compound 125, 5-(2,8-dimethylimidazo[1,2-a]pyridin-6-yl)-7-fluoro-2-(4-piperidyl)indazole]: the IC50 in the assay with HTT mRNA (setting [1]) was 100 to 1000 nM; with HTT mRNA (setting [2]), 100 to 1000 nM; with MYB mRNA (setting [1]) it was 100 to 1000 nM; in the assay on MYB mRNA (setting [2]), 100 to 1000 nM; with SMN2 mRNA, below 100 nM. For the same compound, the half-maximal activity concentration (AC50) in the assay with HTT mRNA (setting [3]) and in the assay on MYB mRNA (setting [3]) was 100 to 1000 nM in each case.

As for `Cc1cc(-c2cc(F)c3nn(C4CCNCC4)cc3c2)cc2cn(C)nc12` [Compound 133, 5-(2,7-dimethylindazol-5-yl)-7-fluoro-2-(4-piperidyl)indazole], the IC50 is below 100 nM in the assay on HTT mRNA (setting [1]); below 100 nM in the assay on HTT mRNA (setting [2]); 100 to 1000 nM with MYB mRNA (setting [1]); 100 to 1000 nM in the assay with MYB mRNA (setting [2]); below 100 nM in the assay on SMN2 mRNA. Moreover, the half-maximal activity concentration (AC50) in the assay with HTT mRNA (setting [3]) is below 100 nM; with MYB mRNA (setting [3]), 100 to 1000 nM.

Turning to `Cc1cn2nc(-c3cc(F)c4nn(C5CCN(CC6CC6)C6(CC6)C5)cc4c3)cc(C)c2n1` (stereo not drawn) [Compound 183, 6-[2-[4-(cyclopropylmethyl)-4-azaspiro[2.5]octan-7-yl]-7-fluoro-indazol-5-yl]-2,8-dimethyl-imidazo[1,2-b]pyridazine], the IC50 was below 100 nM in the assay on HTT mRNA (setting [1]); below 100 nM in the assay on HTT mRNA (setting [2]); 100 to 1000 nM in the assay with MYB mRNA (setting [1]); 100 to 1000 nM in the assay with MYB mRNA (setting [2]); below 100 nM in the assay with SMN2 mRNA. Moreover, the half-maximal activity concentration (AC50) was below 100 nM in the assay with HTT mRNA (setting [3]) and 100 to 1000 nM in the assay on MYB mRNA (setting [3]).

As to `Cc1cn2nc(-c3cc(F)c4nn(C5CCN(C)C6(CC6)C5)cc4c3)cc(C)c2n1` (stereo not drawn) [Compound 174, 6-[7-fluoro-2-(4-methyl-4-azaspiro[2.5]octan-7-yl)indazol-5-yl]-2,8-dimethyl-imidazo[1,2-b]pyridazine], the IC50 in the assay on HTT mRNA (setting [1]) was below 100 nM; in the assay on HTT mRNA (setting [2]) it was below 100 nM; in the assay on MYB mRNA (setting [1]) it was 100 to 1000 nM; in the assay on MYB mRNA (setting [2]), 100 to 1000 nM; with SMN2 mRNA, below 100 nM. Also, the AC50 in the assay on HTT mRNA (setting [3]) is below 100 nM; in the assay on MYB mRNA (setting [3]), 100 to 1000 nM.

Regarding `Cc1cc(-n2cc3cc(C4CCNCC4)cc(F)c3n2)cc2cn(C)nc12` [Compound 115, 2-(2,7-dimethylindazol-5-yl)-7-fluoro-5-(4-piperidyl)indazole], the IC50 was 1000 to 10000 nM in the assay on HTT mRNA (setting [1]); 1000 to 10000 nM in the assay on HTT mRNA (setting [2]); above 10000 nM in the assay with MYB mRNA (setting [1]); above 10000 nM in the assay on MYB mRNA (setting [2]); 100 to 1000 nM in the assay on SMN2 mRNA. Besides, the AC50 in the assay with HTT mRNA (setting [3]) and in the assay with MYB mRNA (setting [3]) was 1000 to 10000 nM each time.

On to `Cc1nc2ccc(-c3cc(F)c4nn(C5CCNCC5)cc4c3)cc2s1` [Compound 134, 6-(7-fluoro-2-(piperidin-4-yl)-2H-indazol-5-yl)-2-methylbenzo[d]thiazole], for which the half-inhibitory concentration (IC50) in the assay with HTT mRNA (setting [1]) fell in the range of 1000 to 10000 nM; in the assay on HTT mRNA (setting [2]) it was 1000 to 10000 nM; with MYB mRNA (setting [1]) it was 1000 to 10000 nM; with MYB mRNA (setting [2]), 1000 to 10000 nM; in the assay with SMN2 mRNA it was 100 to 1000 nM. Also, the AC50 in the assay with HTT mRNA (setting [3]) and in the assay with MYB mRNA (setting [3]) was above 10000 nM each time.

As for `Cc1nc2c(C)c(O)c(-c3cc(F)c4nn(C5CCNCC5)cc4c3)cc2o1` [Compound 123, 6-[7-fluoro-2-(4-piperidyl)indazol-5-yl]-2,4-dimethyl-1,3-benzoxazol-5-ol], the half-maximal inhibitory concentration (IC50) with HTT mRNA (setting [1]) lay within 100 to 1000 nM; in the assay on HTT mRNA (setting [2]), 100 to 1000 nM; in the assay on MYB mRNA (setting [1]) it was 1000 to 10000 nM; in the assay with MYB mRNA (setting [2]), 1000 to 10000 nM; in the assay on SMN2 mRNA, 100 to 1000 nM. Further, the figures for the half-maximal activity concentration (AC50) in the assay on HTT mRNA (setting [3]) and in the assay with MYB mRNA (setting [3]) were 100 to 1000 nM and 1000 to 10000 nM, respectively.

For `Cc1cn2cc(-c3cc(F)c4nn(C5CCNCC5)cc4c3)cc(Cl)c2n1` [Compound 127, 5-(8-chloro-2-methylimidazo[1,2-a]pyridin-6-yl)-7-fluoro-2-(piperidin-4-yl)-2H-indazole hydrochloride salt], the IC50 with HTT mRNA (setting [1]) was below 100 nM; in the assay with HTT mRNA (setting [2]), below 100 nM; in the assay with MYB mRNA (setting [1]), 100 to 1000 nM; in the assay with MYB mRNA (setting [2]), 100 to 1000 nM; with SMN2 mRNA, below 100 nM. Also, the AC50 in the assay on HTT mRNA (setting [3]) and with MYB mRNA (setting [3]) was 100 to 1000 nM in each case.

Consider `Cc1nc2c(C)cc(-n3cc4cc(N5CCNCC5)cc(F)c4n3)cc2o1` [Compound 119, 6-(7-fluoro-5-piperazin-1-yl-indazol-2-yl)-2,4-dimethyl-1,3-benzoxazole], for which the IC50 was above 10000 nM with HTT mRNA (setting [1]); above 10000 nM in the assay with HTT mRNA (setting [2]); above 10000 nM with MYB mRNA (setting [1]); above 10000 nM in the assay with MYB mRNA (setting [2]); 1000 to 10000 nM with SMN2 mRNA. Further, the AC50 in the assay on HTT mRNA (setting [3]) and in the assay with MYB mRNA (setting [3]) was above 10000 nM each time.

As for `Cc1nc2c(F)cc(-c3cc(F)c4nn(C5CCNCC5)cc4c3)cc2o1` [Compound 136, 4-fluoro-6-[7-fluoro-2-(4-piperidyl)indazol-5-yl]-2-methyl-1,3-benzoxazole], the concentration for half-maximal inhibition (IC50) in the assay with HTT mRNA (setting [1]) is below 100 nM; in the assay with HTT mRNA (setting [2]) it was below 100 nM; in the assay with MYB mRNA (setting [1]), 100 to 1000 nM; in the assay on MYB mRNA (setting [2]), 100 to 1000 nM; in the assay with SMN2 mRNA it was below 100 nM. Further, the AC50 is below 100 nM in the assay with HTT mRNA (setting [3]) and 100 to 1000 nM in the assay on MYB mRNA (setting [3]).

As for `Cc1cn2nc(-c3cc4cn(C5CCNCC5)nc4c(O)n3)cc(C)c2n1` [Compound 139, 5-(2,8-dimethylimidazo[1,2-b]pyridazin-6-yl)-2-(4-piperidyl)-6H-pyrazolo[3,4-c]pyridin-7-one], the IC50 in the assay on HTT mRNA (setting [1]) is below 100 nM; in the assay with HTT mRNA (setting [2]) it was below 100 nM; in the assay on MYB mRNA (setting [1]), 100 to 1000 nM; in the assay on MYB mRNA (setting [2]), 100 to 1000 nM; in the assay with SMN2 mRNA, below 100 nM. Also, the figures for the concentration at half-maximal activity (AC50) with HTT mRNA (setting [3]) and with MYB mRNA (setting [3]) were below 100 nM and 100 to 1000 nM, respectively.

`Cn1cc2cc(-c3cc(F)c4nn(C5CCNCC5)cc4c3)cc(C#N)c2n1` [Compound 130, 5-[7-fluoro-2-(4-piperidyl)indazol-5-yl]-2-methyl-indazole-7-carbonitrile]: the IC50 in the assay with HTT mRNA (setting [1]) is below 100 nM; with HTT mRNA (setting [2]), below 100 nM; in the assay with MYB mRNA (setting [1]), 100 to 1000 nM; with MYB mRNA (setting [2]), 100 to 1000 nM; with SMN2 mRNA it was below 100 nM. The concentration at half-maximal activity (AC50) in the assay with HTT mRNA (setting [3]) was below 100 nM; in the assay with MYB mRNA (setting [3]), 100 to 1000 nM.

As usually defined, the IC50 is the concentration at which inhibition is half-maximal. Broadly, the AC50 is the concentration at which the activity in the assay is half-maximal.
